Measured values as given in PubChem BioAssay AID1508612.

Assay: passive permeability, PAMPA, ADME assay (AID 1508612)
Conditions: pH 7.4, 30.0 min, 50.0 µM

Papp | Structure (SMILES)
138 ×10⁻⁶ cm/s | CCCN1CNc2c(c(=O)[nH]c(=S)n2CCc2ccc(OC)c(OC)c2)C1
> 1000 ×10⁻⁶ cm/s | CCOc1ccc(CNc2ccc3c(c2)ncn3C)cc1
455 ×10⁻⁶ cm/s | CC(=O)Nc1cccc(-c2nc(-c3c(C)noc3C)cc3c2cc(-c2ccccc2)n3C)c1
926 ×10⁻⁶ cm/s | CCOc1ccc(/C=C/c2nc3ccccc3n2S(=O)(=O)c2ccc(Br)cc2)cc1
> 1000 ×10⁻⁶ cm/s | Fc1ccc(Cl)cc1-c1nc(Nc2ccncc2)c2nccnc2n1
87.7 ×10⁻⁶ cm/s | CCc1cccc(NC(=O)c2cc(-c3ccc[nH]3)n[nH]2)c1
370 ×10⁻⁶ cm/s | CC[C@@]1(O)C(=O)OCc2c1cc1n(c2=O)Cc2c-1nc1cc(F)c(C)c3c1c2[C@@H](N)CC3
202 ×10⁻⁶ cm/s | CCNC(=O)N1CCCN(c2ccc(C(=O)NCCc3ccc(Cl)cc3Cl)cc2NC(=O)c2cccc(Cl)c2)CC1
3.74 ×10⁻⁶ cm/s | COc1ccc(O)c(CNc2ccc(S(=O)(=O)Nc3nccs3)cc2)c1
674 ×10⁻⁶ cm/s | COc1cccc(CC(=O)Nc2nc(-c3ccc4c(c3)CCN4C(=O)c3ccccc3C)c(C)s2)c1
12.5 ×10⁻⁶ cm/s | CC1(C)C(=O)NC2=C1C(=O)C(=O)c1ccccc12
7.7 ×10⁻⁶ cm/s | COc1ccc(-c2csc(NC(=O)c3ccccc3NS(=O)(=O)c3ccc(C)cc3)n2)cc1
236 ×10⁻⁶ cm/s | c1cc(-c2cc(-c3ccncc3)c3cncn3c2)c2cc[nH]c2c1
743 ×10⁻⁶ cm/s | O=C(c1ccccc1)N1CCN(c2nc(-c3ccc(Br)cc3)cs2)CC1
858 ×10⁻⁶ cm/s | COc1cc2c(cc1-c1c(C)noc1C)ncc1[nH]c(=O)n([C@H](C)c3ccccn3)c12
> 1000 ×10⁻⁶ cm/s | CC(=O)c1c(C)[nH]c(C(=O)Nc2cccc(S(=O)(=O)N3CCCCCC3)c2)c1C
34.3 ×10⁻⁶ cm/s | O=C(O)c1ccc(N2C(=O)/C(=C/c3ccc(-c4ccc([N+](=O)[O-])cc4)o3)C=C2c2ccccc2)cc1
> 1000 ×10⁻⁶ cm/s | Cc1cccc(-n2cnc3cc(C(=O)N4CCCC(C(F)(F)F)C4)ccc32)c1 (configuration not stated)
891 ×10⁻⁶ cm/s | O=C(Nc1ccccc1F)c1nc(S(=O)(=O)Cc2ccccc2F)ncc1Cl
106 ×10⁻⁶ cm/s | Cn1c2cc(S(C)=O)sc2c2cnn(Cc3cccc(N)c3)c(=O)c21 (configuration not stated)
> 1000 ×10⁻⁶ cm/s | CC(C)NC(=O)C1CCN(C(=O)c2cc3sccc3n2Cc2ccc(Cl)cc2)CC1
669 ×10⁻⁶ cm/s | NC(=O)C1CCN(c2nc(-c3ccc4c(c3)OCCO4)cs2)CC1

Papp | Structure (SMILES)
> 1000 ×10⁻⁶ cm/s | Cc1ccc(CNCc2cn[nH]c2-c2ccc(C)cc2)cc1
179 ×10⁻⁶ cm/s | CN(C)S(=O)(=O)c1cccc(NC(=O)c2ccc[nH]2)c1
136 ×10⁻⁶ cm/s | NC(=O)C1CCN(c2nc(-c3ccccc3N)cs2)CC1
765 ×10⁻⁶ cm/s | CCOC(=O)N1CCN(Cc2nc3c(c(=O)n(C)c(=O)n3C)n2CCC(C)C)CC1
> 1000 ×10⁻⁶ cm/s | CC(C)Oc1cccc(-c2csc(N3CCC(C(N)=O)CC3)n2)c1
> 1000 ×10⁻⁶ cm/s | Cc1cccc(-n2cnc3cc(C(=O)N4CCC(Br)CC4)ccc32)c1
34.5 ×10⁻⁶ cm/s | COc1ccc(Nc2nc(-c3cccc(OC)c3)no2)cc1
40.5 ×10⁻⁶ cm/s | Clc1ccc(C2(c3ccc(-c4cn[nH]c4)cc3)CCNCC2)cc1
462 ×10⁻⁶ cm/s | NC(=O)C1CCN(c2nc(-c3ccccc3Br)cs2)CC1
752 ×10⁻⁶ cm/s | CC(=O)c1sc(NC(=O)c2ccco2)nc1-c1ccccc1
540 ×10⁻⁶ cm/s | C[S+](=O)([O-])c1ccc(-c2nc(C(=O)NCc3cccnc3)n3ccccc23)cc1
82.5 ×10⁻⁶ cm/s | Cc1ccc(C(=O)Nc2ccc3oc(-c4cccnc4)nc3c2)cc1[N+](=O)[O-]
< 1 ×10⁻⁶ cm/s | CN(C)CCOc1ccc(C(=C(CCCl)c2ccccc2)c2ccccc2)cc1
664 ×10⁻⁶ cm/s | Oc1ccc(Nc2nc(-c3ccncc3)nc3ccccc23)cc1F
117 ×10⁻⁶ cm/s | CC(=O)c1c(C)[nH]c(C(=O)Nc2cccc([S+](=O)([O-])Nc3c(C)cccc3C)c2)c1C
950 ×10⁻⁶ cm/s | COC(=O)C1=C(C)NC(C)=C(C(=O)O[C@@H]2CCCN(Cc3ccccc3)C2)[C@@H]1c1cccc([N+](=O)[O-])c1
721 ×10⁻⁶ cm/s | Cc1cc(Nc2nc(-c3ccncc3)nc3ccccc23)n[nH]1
23.9 ×10⁻⁶ cm/s | NC(=O)C1CCN(c2nc(-c3ccc(N4CCCCC4)nc3)cs2)CC1
613 ×10⁻⁶ cm/s | CCOC(=O)N1CCN(Cc2nc3cc(NC(=O)CC(C)C)ccc3n2C(C)C)CC1
244 ×10⁻⁶ cm/s | COc1ccc(C2=Nn3c(nnc3-c3ccncc3)SC2)cc1
478 ×10⁻⁶ cm/s | Cc1ccc(S(=O)(=O)Nc2ccccc2C(=O)Nc2nccs2)cc1
94.2 ×10⁻⁶ cm/s | CN1C(=O)c2ccccc2[S@](=O)c2ccc(C(=O)NCCN3CCCC3)cc21

Papp | Structure (SMILES)
> 1000 ×10⁻⁶ cm/s | COc1cc2cc(CN3CCC(N(C)C)C3)c(-c3cccc(Cl)c3)nc2cc1OC (configuration not stated)
730 ×10⁻⁶ cm/s | Cc1cccc(Nc2nc(NCc3ccco3)c3ccccc3n2)c1
412 ×10⁻⁶ cm/s | Cc1cc(NS(=O)(=O)c2ccc3c(c2)CCC(=O)N3)ccc1F
665 ×10⁻⁶ cm/s | CC(=O)OCCN1C(=O)c2c(C)nc3ccc(S(=O)(=O)N4CCOCC4)cc3c2C1=O
3.49 ×10⁻⁶ cm/s | O=C(O)c1ccccc1C(=O)Nc1ccc(-c2ccccc2)cc1
646 ×10⁻⁶ cm/s | COc1ccc(-c2csc(N3CCC(C(N)=O)CC3)n2)cc1
> 1000 ×10⁻⁶ cm/s | COc1cccc(-c2csc(NC(=O)c3ccncc3NS(=O)(=O)c3ccc(C)cc3)n2)c1
< 1 ×10⁻⁶ cm/s | O=C(Nc1ccc(S(=O)(=O)Nc2nccs2)cc1)c1cccnc1
533 ×10⁻⁶ cm/s | COc1cccc(C(=O)Nc2ccc3oc(-c4ccc5ccccc5c4)nc3c2)c1
709 ×10⁻⁶ cm/s | O=C(O)c1c(Sc2ccccc2)c2cc(Cl)ccc2n1Cc1ccc(Cl)cc1
< 1 ×10⁻⁶ cm/s | Oc1ccc(CNc2ccccc2Br)c2cccnc12
13.5 ×10⁻⁶ cm/s | Nc1ncc(S(=O)(=O)N2CCN(c3ccccc3)CC2)cn1
980 ×10⁻⁶ cm/s | COc1ccccc1-c1nc(NCc2ccc(-c3cccnc3)cc2)c2ccccc2n1
970 ×10⁻⁶ cm/s | Cc1noc(C)c1-c1ccc2ncnc(NCc3cccc(Cl)c3)c2c1
197 ×10⁻⁶ cm/s | O=C(Nc1nc2cc(C(F)(F)F)cc(NC3CC3)n2n1)c1cccnc1
> 1000 ×10⁻⁶ cm/s | CC(C)c1ccccc1-c1ncc(F)c(NCc2ccc(-c3ccn[nH]3)cc2)n1
106 ×10⁻⁶ cm/s | COc1ccc(-n2nc(C3CCCN(C(=O)Cc4ccccn4)C3)[nH]c2=O)cc1 (configuration not stated)
< 1 ×10⁻⁶ cm/s | CC1=C(C(=O)Nc2nncs2)C2(CCCC2)N=C(Nc2nc3ccccc3o2)N1
343 ×10⁻⁶ cm/s | N#Cc1ccccc1-c1csc(N2CCC(C(N)=O)CC2)n1
490 ×10⁻⁶ cm/s | CC[C@H]1CN(C)[C@H]2Cc3c([nH]c4ccccc34)C(=O)C[C@H]1[C@H]2C(=O)OC
191 ×10⁻⁶ cm/s | NC(=O)C1CCN(c2nc(-c3ccc(Cl)cc3)cs2)CC1
< 1 ×10⁻⁶ cm/s | CCOc1cccc(C(=O)Nc2nc3c(s2)CC(C(C)(C)C)CC3)c1 (configuration not stated)

Papp | Structure (SMILES)
28.8 ×10⁻⁶ cm/s | COc1cccc(CNc2ccc(S(=O)(=O)Nc3nccs3)cc2)c1N
< 1 ×10⁻⁶ cm/s | CC[C@@]1(O)C(=O)OCc2c1cc1n(c2=O)Cc2c-1nc1ccccc1c2CCNC(C)C
61.8 ×10⁻⁶ cm/s | O=C(NC1CCCN(c2cc(-c3ccc(F)cc3)[nH]n2)C1)c1ccc2ncccc2c1 (configuration not stated)
> 1000 ×10⁻⁶ cm/s | CNc1nc(C#N)c(-c2cccc3ccccc23)o1
278 ×10⁻⁶ cm/s | CCOC(=O)Nc1cc(-c2ccc(C)c(NS(C)(=O)=O)c2)nn2c(C)nnc12
34.2 ×10⁻⁶ cm/s | Cc1cccc(-c2noc([C@@H]3Cc4nc[nH]c4CN3C(=O)CC(C)(C)CC(=O)O)n2)c1
> 1000 ×10⁻⁶ cm/s | COc1cccc(CNCc2cccn2-c2nnc(N3CCN(c4ccccc4)CC3)s2)c1
762 ×10⁻⁶ cm/s | CCCN1C(CC(C)C)=NS(=O)(=O)c2cc(NC(=O)c3cccs3)ccc21
> 1000 ×10⁻⁶ cm/s | Cc1cnc(-c2ccccc2C(F)F)nc1NCc1ccc(-c2cccnc2)cc1
> 1000 ×10⁻⁶ cm/s | CCOC(=O)c1ccc(NC2CCCCC2)c(N)c1
282 ×10⁻⁶ cm/s | COC(=O)Nc1nc2ccc(C(=O)c3ccccc3)cc2[nH]1
> 1000 ×10⁻⁶ cm/s | COc1ccccc1OCCNCC(O)COc1cccc2[nH]c3ccccc3c12 (configuration not stated)
109 ×10⁻⁶ cm/s | Cc1nn2c(c1-c1ccccc1-c1ccccc1)N(Cc1ccc(C(=O)O)s1)CCC2
488 ×10⁻⁶ cm/s | COc1ccc(-n2c(C)cc(-c3nnc4n3CCCCC4)c2C)cc1
18 ×10⁻⁶ cm/s | O=C(NCCCc1ccccc1)C1CCN(c2nc(-c3ccc(Br)cc3)cs2)CC1
30.3 ×10⁻⁶ cm/s | COc1nccc(-c2nc(Nc3ccc(F)c(F)c3)c3ccccc3n2)c1Cl
524 ×10⁻⁶ cm/s | O=[S+]([O-])(Nc1ccccc1)c1ccc(NCc2ccc(Cl)cc2O)cc1
754 ×10⁻⁶ cm/s | Cc1ccc(OCCn2c(CCNC(=O)c3ccc(Cl)cc3)nc3ccccc32)cc1
6.1 ×10⁻⁶ cm/s | COc1cc(Cl)cn2c(-c3cccc(NC4CNC4)n3)cnc12
117 ×10⁻⁶ cm/s | O=C(Nc1ccccc1O)c1ccc(NC(=O)C2CC2)cc1
> 1000 ×10⁻⁶ cm/s | COc1ccc(C2c3c(ncn(CCN4CCOCC4)c3=N)Oc3ccc4ccccc4c32)cc1OC (configuration not stated)
5.16 ×10⁻⁶ cm/s | COc1cccc(O)c1CNc1ccc(S(=O)(=O)Nc2nccs2)cc1

Papp | Structure (SMILES)
951 ×10⁻⁶ cm/s | CCOC(=O)CCNc1cc(N2CCc3ccccc3CC2)nc(-c2cccnc2)n1
> 1000 ×10⁻⁶ cm/s | CC(C)c1ccccc1-c1ncc(F)c(NC2(c3ccc(-c4cccnc4)cc3)CC2)n1
> 1000 ×10⁻⁶ cm/s | CCOc1ccc(CCNC(=O)c2cc3sccc3n2CCN(C)C)cc1OCC
371 ×10⁻⁶ cm/s | Fc1ccc(Nc2ccnc(-c3ccncc3)n2)cc1F
38.2 ×10⁻⁶ cm/s | Cc1ccc(S(=O)(=O)Nc2cnccc2C(=O)Nc2nc(-c3ccc(Cl)cc3)cs2)cc1
68.7 ×10⁻⁶ cm/s | COC(=O)c1cc(Cl)ccc1NC(=O)CSc1ncc(S(=O)(=O)c2ccc(Br)cc2)c(=O)[nH]1
> 1000 ×10⁻⁶ cm/s | Cc1nn2c(c1-c1ccccc1-c1ccccc1)N(CC1CC1)CCC2
8.1 ×10⁻⁶ cm/s | CCOc1ccccc1C(=O)Nc1cccnc1C(=O)Nc1cccc(S(=O)(=O)C(F)(F)F)c1
37.8 ×10⁻⁶ cm/s | CN(C)c1cccc(-c2cc(N3CCC(C(N)=O)CC3)ncn2)c1
244 ×10⁻⁶ cm/s | Cc1c(-c2cccc3c(CCCOc4cccc5ccccc45)c(C(=O)O)n(Cc4cccnc4)c23)c(COc2ccc(N3CCN([S+](=O)([O-])N(C)C)CC3)cc2)nn1C
> 1000 ×10⁻⁶ cm/s | CC(=O)Nc1cccc(-c2csc(Nc3cc(C)ccn3)n2)c1
131 ×10⁻⁶ cm/s | Cn1cnc2c(F)c(Nc3ccc(Br)cc3Cl)c(C(=O)NOCCO)cc21
> 1000 ×10⁻⁶ cm/s | CC1=C(C(=O)NC2CCCC2)C(c2nn(C)cc2Cl)N=C(Nc2nc3ccccc3o2)N1 (configuration not stated)
6.49 ×10⁻⁶ cm/s | CC(C)(C)c1ccc(S(=O)(=O)c2cnc(SCC(=O)Nc3ccc(F)c(Cl)c3)[nH]c2=O)cc1
39 ×10⁻⁶ cm/s | COc1ccc(-c2cc(-c3cccc(NC(C)=O)c3)cn3cncc23)cn1
< 1 ×10⁻⁶ cm/s | COc1ccc(S(=O)(=O)N2CCCCCC2)cc1NC(=O)Cc1n[nH]c(=O)c2ccccc12
> 1000 ×10⁻⁶ cm/s | Clc1ccccc1Nc1nc(-c2ccncc2)nc2ccccc12
> 1000 ×10⁻⁶ cm/s | CC1=Nc2cc(C(=O)NC3CCCC3)ccc2Sc2ccc(C)cc21

Structure (SMILES) | Papp
Nc1c(C(=O)Nc2ccc(Cl)cc2)sc2nc3c(cc12)N1CCC3CC1 | 697 ×10⁻⁶ cm/s
